Source: US8598374B2, “GPR120 receptor agonists and uses thereof” (Metabolex, Inc, priority 2008, dated 2013)

biological target: T1, human GPR120 (Homo sapiens, UniProt Q5NUL3); experiment: Intracellular Ca2+ assay (FLIPR Calcium 4, Flexstation) in human GPR120 stable cell line; format: cell-based; details: % activity at 2.5 μM compared to the maximal activity of the compound of Example 25 at 2.5 μM; HEK293 cells co-expressing Gqi5
T1 construct: Flag (DYKDDDDK) (N); host or cells: HEK293 cells co-expressing Gqi5
T1 sequence (Q5NUL3 1-361): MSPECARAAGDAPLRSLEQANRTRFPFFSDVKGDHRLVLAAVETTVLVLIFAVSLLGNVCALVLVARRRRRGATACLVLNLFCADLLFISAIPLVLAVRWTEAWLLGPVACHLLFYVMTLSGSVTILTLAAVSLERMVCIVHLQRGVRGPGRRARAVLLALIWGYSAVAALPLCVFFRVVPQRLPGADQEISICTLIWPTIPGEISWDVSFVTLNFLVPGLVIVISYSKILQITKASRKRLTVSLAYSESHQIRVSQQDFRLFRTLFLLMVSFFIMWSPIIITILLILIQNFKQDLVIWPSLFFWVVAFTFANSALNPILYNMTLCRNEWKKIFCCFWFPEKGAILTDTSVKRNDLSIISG
How it was run: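 HEK293 cells co-expressing Gqi5 and stably expressing Flag-tagged human GPR120 were seeded at 70,000 cells per well in poly-D-lysine coated 96 well plates and loaded with FLIPR Calcium 4 dye for 50 minutes at 37° C. On a Flexstation, compound-induced fluorescence (excitation 485 nm, emission 525) was recorded for 90 seconds. Percent activity was expressed against a reference agonist's maximal activity at 2.5 μM, set as 100%.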

SMILES	% Activity (Ex. 25 Reference Compound) [%]
C[C@H](Cc1ccc(OCc2cc(Cl)cc3c2OC(C)(C)C3)c(F)c1)C(=O)O [Example 141, (R)-3-(4-((5-chloro-2,2-dimethyl-2,3-dihydrobenzofuran-7-yl)methoxy)-3-fluorophenyl)-2-methylpropanoic acid]	143.3
C[C@H](Cc1ccc(OCc2cc(Cl)cc3c2OC(C)(C)C3)c(C(F)(F)F)c1)C(=O)O [Example 143, (R)-3-(4-((5-chloro-2,2-dimethyl-2,3-dihydrobenzofuran-7-yl)methoxy)-3-(trifluoromethyl)phenyl)-2-methylpropanoic acid]	90.56
[2H]C1([2H])c2cc(F)cc(COc3ccc(CC(C)C(=O)O)cc3)c2OC1(C)C (stereo not shown) [Example 145, 3-(4-((3,3-dideuterio-5-fluoro-2,2-dimethyl-2,3-dihydrobenzofuran-7-yl)methoxy)phenyl)-2-methylpropanoic acid]	143.69
[2H]C1([2H])c2cc(Cl)cc(COc3ccc(CC(C)C(=O)O)cc3F)c2OC1(C)C (stereo not shown) [Example 146, 3-(4-((3,3-dideuterio-5-chloro-2,2-dimethyl-2,3-dihydrobenzofuran-7-yl)methoxy)-3-fluorophenyl)-2-methylpropanoic acid]	140.72
[2H]C1([2H])c2cc(Cl)cc(COc3ccc(CC(C)C(=O)O)cc3C(F)(F)F)c2OC1(C)C (stereo not shown) [Example 147, 3-(4-((3,3-dideuterio-5-chloro-2,2-dimethyl-2,3-dihydrobenzofuran-7-yl)methoxy)-3-(trifluoromethyl)phenyl)-2-methylpropanoic acid]	138.65
CC(Cc1ccc(OCc2cc(Cl)cc3c2OCC3(C)C)cc1)C(=O)O (stereo not shown) [Example 148, 3-(4-((5-chloro-3,3-dimethyl-2,3-dihydrobenzofuran-7-yl)methoxy)phenyl)-2-methylpropanoic acid]	113.89
Cc1cc2cccc(COc3c(F)cc(CC(C)C(=O)O)cc3F)c2s1 (stereo not shown) [Example 151, 3-(3,5-difluoro-4-((2-methylbenzo[b]thiophen-7-yl)methoxy)phenyl)-2-methylpropanoic acid]	117.38
Cc1cc2cccc(COc3ccc4c(c3)CCC4CC(=O)O)c2s1 (stereo not drawn) [Example 152, 2-(5-((2-methylbenzo[α]thiophen-7-yl)methoxy)-2,3-dihydro-1H-inden-1-yl)acetic acid]	83.81
CC1(C)Cc2cc(F)cc(COc3ccc4c(c3)CCCC4CC(=O)O)c2O1 (stereo not shown) [Example 153, 2-(6-((5-fluoro-2,2-dimethyl-2,3-dihydrobenzofuran-7-yl)methoxy)-1,2,3,4-tetrahydronaphthalen-1-yl)acetic acid]	106.81
CC1(C)Cc2cc(Cl)cc(COc3ccc(C(C)(C)CC(=O)O)cc3)c2O1 [Example 156, 3-(4-((5-chloro-2,2-dimethyl-2,3-dihydrobenzofuran-7-yl)methoxy)phenyl)-3-methylbutanoic acid]	148.87
CC(Cc1ccc(OCc2cc(Cl)cc3c2OC2(CCCC2)C3)cc1)C(=O)O (stereo not shown) [Example 159, 3-(4-((5-chloro-3H-spiro[benzofuran-2,1′-cyclopentane]-7-yl)methoxy)phenyl)-2-methylpropanoic acid]	164.79
CC1(C)Cc2cc(F)cc(COc3ccc(CCCC(=O)O)cc3)c2O1 [Example 160, 4-(4-((5-fluoro-2,2-dimethyl-2,3-dihydrobenzofuran-7-yl)methoxy)phenyl)butanoic acid]	172.13
CC(Cc1ccc(OCc2cc(F)cc3c2OC2(CCCC2)C3)cc1)C(=O)O (stereo not shown) [Example 162, 3-(4-((5-fluoro-3H-spiro[benzofuran-2,1′-cyclopentane]-7-yl)methoxy)phenyl)-2-methylpropanoic acid]	154.48
O=C(O)C1CC1c1ccc(OCc2cc(F)cc3c2OC2(CCCC2)C3)cc1 (stereo not shown) [Example 165, 2-(4-((5-fluoro-3H-spiro[benzofuran-2,1′-cyclopentane]-7-yl)methoxy)phenyl)cyclopropanecarboxylic acid]	158.08
CC(CCc1ccc(OCc2cc(F)cc3c2OC(C)(C)C3)cc1)C(=O)O (stereo not shown) [Example 171, 4-(4-((5-fluoro-2,2-dimethyl-2,3-dihydrobenzofuran-7-yl)methoxy)phenyl)-2-methylbutanoic acid]	98.97
COc1cc(CCC(=O)O)ccc1OCc1cc(F)cc2c1OC(C)(C)C2 [Example 173, 3-(4-((5-fluoro-2,2-dimethyl-2,3-dihydrobenzofuran-7-yl)methoxy)-3-methoxyphenyl)propanoic acid]	159.06
CC1(C)Cc2cc(F)cc(COc3ccc4c(c3)CC[C@H]4CC(=O)O)c2O1 [Example 175, (S)-2-(5-((5-fluoro-2,2-dimethyl-2,3-dihydrobenzofuran-7-yl)methoxy)-2,3-dihydro-1H-inden-1-yl)acetic acid]	152.44

Further lines, results first:

% Activity (Ex. 25 Reference Compound) [%]	SMILES
138.42	CC1(C)Cc2cc(Cl)cc(COc3ccc4c(c3)CC[C@H]4CC(=O)O)c2O1 [Example 176, (S)-2-(5-((5-chloro-2,2-dimethyl-2,3-dihydrobenzofuran-7-yl)methoxy)-2,3-dihydro-1H-inden-1-yl)acetic acid]
106	CC1(C)Cc2cc(F)cc(COc3ccc4c(c3)CC[C@@H]4CC(=O)O)c2O1 [Example 178, (R)-2-(5-((5-fluoro-2,2-dimethyl-2,3-dihydrobenzofuran-7-yl)methoxy)-2,3-dihydro-1H-inden-1-yl)acetic acid]
105.44	CC1(C)Cc2cc(Cl)cc(COc3ccc4c(c3)CC[C@@H]4CC(=O)O)c2O1 [Example 179, (R)-2-(5-((5-chloro-2,2-dimethyl-2,3-dihydrobenzofuran-7-yl)methoxy)-2,3-dihydro-1H-inden-1-yl)acetic acid]
98.43	CC(CC(=O)O)Cc1ccc(OCc2cc(F)cc3c2OC(C)(C)C3)cc1 (stereo not shown) [Example 182, 4-(4-((5-fluoro-2,2-dimethyl-2,3-dihydrobenzofuran-7-yl)methoxy)phenyl)-3-methylbutanoic acid]
97.04	CC1(C)Cc2cc(F)cc(COc3c(F)cc(CC4CC4C(=O)O)cc3F)c2O1 (stereo not shown) [Example 184, 2-(3,5-difluoro-4-((5-fluoro-2,2-dimethyl-2,3-dihydrobenzofuran-7-yl)methoxy)benzyl)cyclopropanecarboxylic acid]
104.04	CC1(C)Cc2c(COc3ccc4c(c3)CC[C@@H]4CC(=O)O)cc(F)cc2O1 [Example 188, (R)-2-(5-((6-fluoro-2,2-dimethyl-2,3-dihydrobenzofuran-4-yl)methoxy)-2,3-dihydro-1H-inden-1-yl)acetic acid]
148.21	COc1cc(OCc2cc(Cl)cc3c2OC2(CCCC2)C3)ccc1CCC(=O)O [Example 194, 3-(4-((5-chloro-3H-spiro[benzofuran-2,1′-cyclopentane]-7-yl)methoxy)-2-methoxyphenyl)propanoic acid]
151.44	CC1(C)Cc2cc(F)cc(COc3cc(Cl)c(CCC(=O)O)c(Cl)c3)c2O1 [Example 197, 3-(2,6-dichloro-4-((5-fluoro-2,2-dimethyl-2,3-dihydrobenzofuran-7-yl)methoxy)phenyl)propanoic acid]
111.45	Cc1cc(OCc2cc(F)cc3c2OC(C)(C)C3)c(C)cc1CCC(=O)O [Example 206, 3-(4-((5-fluoro-2,2-dimethyl-2,3-dihydrobenzofuran-7-yl)methoxy)-2,5-dimethylphenyl)propanoic acid]
147.47	Cc1c(CCC(=O)O)ccc(OCc2cc(F)cc3c2OC(C)(C)C3)c1C [Example 208, 3-(4-((5-fluoro-2,2-dimethyl-2,3-dihydrobenzofuran-7-yl)methoxy)-2,3-dimethylphenyl)propanoic acid]
142.22	Cc1c(CCC(=O)O)ccc(OCc2cc(Cl)cc3c2OC(C)(C)C3)c1C [Example 209, 3-(4-((5-chloro-2,2-dimethyl-2,3-dihydrobenzofuran-7-yl)methoxy)-2,3-dimethylphenyl)propanoic acid]
143.21	Cc1cc(OCc2cc(F)cc3c2OC(C)(C)C3)c(F)cc1CCC(=O)O [Example 214, 3-(5-fluoro-4-((5-fluoro-2,2-dimethyl-2,3-dihydrobenzofuran-7-yl)methoxy)-2-methylphenyl)propanoic acid]
144.23	CCc1c(CCC(=O)O)ccc(OCc2cc(F)cc3c2OC(C)(C)C3)c1F [Example 216, 3-(2-ethyl-3-fluoro-4-((5-fluoro-2,2-dimethyl-2,3-dihydrobenzofuran-7-yl)methoxy)phenyl)propanoic acid]
114.48	CC1(C)Cc2cc(F)cc(COc3ccc(CCC(=O)O)c4c3CCCC4)c2O1 [Example 218, 3-(4-((5-fluoro-2,2-dimethyl-2,3-dihydrobenzofuran-7-yl)methoxy)-5,6,7,8-tetrahydronaphthalen-1-yl)propanoic acid]
